Reference: ChEMBL document CHEMBL5244205, “Discovery of tricyclic dipyrrolopyridine derivatives as novel JAK inhibitors” (Bioorg Med Chem, 2017)

Tests used:
[1] = Clearance in Sprague-Dawley rat at 1 mg/kg, iv measured up to 24 hrs by LC-MS/MS analysis; format: ADME, organism-based; conditions: in vivo
[2] = Volume of distribution in Sprague-Dawley rat at 1 mg/kg, iv measured up to 24 hrs by LC-MS/MS analysis; format: ADME, organism-based; conditions: in vivo
[3] = Half life in Sprague-Dawley rat at 1 mg/kg, iv measured up to 24 hrs by LC-MS/MS analysis; format: ADME, organism-based; conditions: in vivo
[4] = AUC (0 to 24 hrs) in Sprague-Dawley rat at 1 mg/kg, iv measured up to 24 hrs by LC-MS/MS analysis; format: ADME, organism-based; design: dose 1 mg/kg, time < 24 hrs, route iv; conditions: in vivo
[5] = Cmax in Sprague-Dawley rat at 1 mg/kg, po measured up to 24 hrs by LC-MS/MS analysis; format: ADME, organism-based; design: time < 24 hrs, dose 1 mg/kg, route po; conditions: in vivo
[6] = Half life in Sprague-Dawley rat at 1 mg/kg, po measured up to 24 hrs by LC-MS/MS analysis; format: ADME, organism-based; conditions: in vivo
[7] = AUC (0 to 24 hrs) in Sprague-Dawley rat at 1 mg/kg, po measured up to 24 hrs by LC-MS/MS analysis; format: ADME, organism-based; design: dose 1 mg/kg, time < 24 hrs, route po; conditions: in vivo
[8] = Oral availability in Sprague-Dawley rat at 1 mg/kg measured up to 24 hrs by LC-MS/MS analysis; format: ADME, organism-based; conditions: in vivo
[9] = Tmax in Sprague-Dawley rat at 1 mg/kg, po measured up to 24 hrs by LC-MS/MS analysis; format: ADME, organism-based; conditions: in vivo
[10] = biological target: Tyrosine-protein kinase ABL1 (Homo sapiens, UniProt P00519); assay: Inhibition of ABL (unknown origin)
[11] = biological target: Tyrosine-protein kinase BTK (Homo sapiens, UniProt Q06187); assay: Inhibition of BTK (unknown origin)
[12] = biological target: Tyrosine-protein kinase CSK (Homo sapiens, UniProt P41240); assay: Inhibition of CSK (unknown origin)
[13] = biological target: Epidermal growth factor receptor (Homo sapiens, UniProt P00533); assay: Inhibition of EGFR (unknown origin)
Ephrin type-A receptor 2 = Ephrin type-A receptor 2 (Homo sapiens, UniProt P29317); assay: Inhibition of EphA2 (unknown origin)
Focal adhesion kinase 1 = Focal adhesion kinase 1 (Homo sapiens, UniProt Q05397); assay: Inhibition of FAK (unknown origin)
[14] = biological target: Insulin-like growth factor 1 receptor (Homo sapiens, UniProt P08069); assay: Inhibition of IGF1R (unknown origin)
[15] = biological target: Tyrosine-protein kinase ITK/TSK (Homo sapiens, UniProt Q08881); assay: Inhibition of ITK (unknown origin)
[16] = Inhibition of SYK (unknown origin); design: species or system Homo sapiens
Angiopoietin-1 receptor = Angiopoietin-1 receptor (Homo sapiens, UniProt Q02763); assay: Inhibition of TIE2 (unknown origin)
[17] = biological target: Tyrosine-protein kinase ZAP-70 (Homo sapiens, UniProt P43403); assay: Inhibition of ZAP70 (unknown origin)
[18] = biological target: Bone morphogenetic protein receptor type-1A (Homo sapiens, UniProt P36894); assay: Inhibition of BMPR1A (unknown origin)
[19] = biological target: Casein kinase I isoform delta (Homo sapiens, UniProt P48730); assay: Inhibition of CHKdelta (unknown origin)
[20] = biological target: Inhibitor of nuclear factor kappa-B kinase subunit beta (Homo sapiens, UniProt O14920); assay: Inhibition of IKKB (unknown origin)
[21] = biological target: Mitogen-activated protein kinase kinase kinase 1 (Homo sapiens, UniProt Q13233); assay: Inhibition of MAP3K1 (unknown origin)
[22] = biological target: MAP kinase-activated protein kinase 2 (Homo sapiens, UniProt P49137); assay: Inhibition of MAPKAPK2 (unknown origin)
[23] = biological target: Mitogen-activated protein kinase 11 (Homo sapiens, UniProt Q15759); assay: Inhibition of P38beta (unknown origin)
[24] = biological target: RAF proto-oncogene serine/threonine-protein kinase (Homo sapiens, UniProt P04049); assay: Inhibition of RAF1 (unknown origin)
Cytochrome P450 3A4 = Cytochrome P450 3A4 (Homo sapiens, UniProt P08684); conditions: microsomes, 20 min, 5 µM
[25] = pampa, pH 6.5, 2 h
Description: Permeability of the compound in pH 6.5 incubated for 2 hrs by PAMPA based HPLC analysis

Epidermal growth factor receptor, sequence (P00533 whole entry): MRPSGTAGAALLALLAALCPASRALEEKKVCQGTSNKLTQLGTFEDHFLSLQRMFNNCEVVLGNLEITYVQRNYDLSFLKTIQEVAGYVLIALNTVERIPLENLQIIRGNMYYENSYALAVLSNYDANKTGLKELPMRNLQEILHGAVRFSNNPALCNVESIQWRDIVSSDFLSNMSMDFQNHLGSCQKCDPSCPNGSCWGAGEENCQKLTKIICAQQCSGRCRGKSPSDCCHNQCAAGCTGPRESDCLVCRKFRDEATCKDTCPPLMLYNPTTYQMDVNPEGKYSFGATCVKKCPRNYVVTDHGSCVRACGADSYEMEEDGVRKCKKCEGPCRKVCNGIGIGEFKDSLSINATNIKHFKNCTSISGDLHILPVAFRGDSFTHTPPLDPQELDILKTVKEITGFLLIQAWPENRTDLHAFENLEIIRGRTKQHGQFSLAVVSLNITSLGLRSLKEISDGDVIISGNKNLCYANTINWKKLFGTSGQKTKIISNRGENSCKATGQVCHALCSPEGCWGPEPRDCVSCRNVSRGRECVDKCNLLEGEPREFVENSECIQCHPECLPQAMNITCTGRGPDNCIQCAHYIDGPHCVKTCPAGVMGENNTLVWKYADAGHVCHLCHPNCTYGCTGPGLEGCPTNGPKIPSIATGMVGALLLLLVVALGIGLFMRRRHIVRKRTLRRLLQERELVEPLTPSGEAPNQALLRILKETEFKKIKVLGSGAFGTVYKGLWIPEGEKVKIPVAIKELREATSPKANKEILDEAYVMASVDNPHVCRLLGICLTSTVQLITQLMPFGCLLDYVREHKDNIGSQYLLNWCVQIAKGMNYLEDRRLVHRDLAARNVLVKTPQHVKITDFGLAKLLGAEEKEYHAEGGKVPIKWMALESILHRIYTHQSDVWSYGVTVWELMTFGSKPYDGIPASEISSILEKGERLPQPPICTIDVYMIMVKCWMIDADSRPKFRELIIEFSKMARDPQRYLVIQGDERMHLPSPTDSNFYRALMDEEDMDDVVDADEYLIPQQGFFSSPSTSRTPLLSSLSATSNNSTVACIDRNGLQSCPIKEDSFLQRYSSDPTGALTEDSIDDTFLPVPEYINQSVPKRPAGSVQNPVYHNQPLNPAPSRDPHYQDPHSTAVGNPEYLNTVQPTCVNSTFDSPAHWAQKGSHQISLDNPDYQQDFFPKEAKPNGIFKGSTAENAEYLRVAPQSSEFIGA
Tyrosine-protein kinase ITK/TSK, sequence (Q08881 whole entry): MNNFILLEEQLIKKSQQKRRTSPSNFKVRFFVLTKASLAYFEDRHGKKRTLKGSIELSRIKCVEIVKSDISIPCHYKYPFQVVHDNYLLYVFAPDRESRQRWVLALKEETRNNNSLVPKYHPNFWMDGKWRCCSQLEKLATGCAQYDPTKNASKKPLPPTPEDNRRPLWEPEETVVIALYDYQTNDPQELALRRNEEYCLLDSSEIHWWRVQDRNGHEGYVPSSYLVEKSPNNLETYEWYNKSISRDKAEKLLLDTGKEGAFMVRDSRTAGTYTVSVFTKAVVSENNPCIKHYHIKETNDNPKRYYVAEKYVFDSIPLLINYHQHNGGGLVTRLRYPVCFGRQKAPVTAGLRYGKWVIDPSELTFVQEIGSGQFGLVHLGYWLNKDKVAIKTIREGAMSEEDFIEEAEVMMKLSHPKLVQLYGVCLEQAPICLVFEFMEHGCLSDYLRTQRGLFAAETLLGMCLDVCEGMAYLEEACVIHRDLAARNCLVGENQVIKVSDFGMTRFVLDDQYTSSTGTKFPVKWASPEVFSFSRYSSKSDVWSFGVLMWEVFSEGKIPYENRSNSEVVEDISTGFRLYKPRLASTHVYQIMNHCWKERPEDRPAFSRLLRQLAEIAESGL
Inhibitor of nuclear factor kappa-B kinase subunit beta, sequence (O14920 whole entry): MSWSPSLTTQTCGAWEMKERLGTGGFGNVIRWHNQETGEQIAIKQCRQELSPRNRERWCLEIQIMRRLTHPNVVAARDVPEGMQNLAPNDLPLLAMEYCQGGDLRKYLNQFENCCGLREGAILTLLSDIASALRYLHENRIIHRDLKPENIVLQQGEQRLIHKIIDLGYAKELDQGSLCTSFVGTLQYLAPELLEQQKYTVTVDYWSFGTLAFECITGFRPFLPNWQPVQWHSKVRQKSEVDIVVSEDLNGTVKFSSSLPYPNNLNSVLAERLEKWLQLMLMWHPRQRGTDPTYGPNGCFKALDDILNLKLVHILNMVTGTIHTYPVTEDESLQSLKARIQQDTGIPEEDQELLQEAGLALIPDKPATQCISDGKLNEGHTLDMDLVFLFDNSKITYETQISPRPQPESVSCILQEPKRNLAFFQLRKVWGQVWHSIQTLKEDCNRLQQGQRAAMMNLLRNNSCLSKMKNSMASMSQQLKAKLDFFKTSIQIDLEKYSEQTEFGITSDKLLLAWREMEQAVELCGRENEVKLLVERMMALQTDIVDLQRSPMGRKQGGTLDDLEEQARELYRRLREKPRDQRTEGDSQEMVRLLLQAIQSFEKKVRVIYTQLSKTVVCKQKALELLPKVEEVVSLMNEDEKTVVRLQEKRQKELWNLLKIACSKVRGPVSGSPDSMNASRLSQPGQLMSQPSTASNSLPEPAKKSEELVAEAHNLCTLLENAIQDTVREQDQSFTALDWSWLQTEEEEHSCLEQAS
Tyrosine-protein kinase BTK, sequence (Q06187 whole entry): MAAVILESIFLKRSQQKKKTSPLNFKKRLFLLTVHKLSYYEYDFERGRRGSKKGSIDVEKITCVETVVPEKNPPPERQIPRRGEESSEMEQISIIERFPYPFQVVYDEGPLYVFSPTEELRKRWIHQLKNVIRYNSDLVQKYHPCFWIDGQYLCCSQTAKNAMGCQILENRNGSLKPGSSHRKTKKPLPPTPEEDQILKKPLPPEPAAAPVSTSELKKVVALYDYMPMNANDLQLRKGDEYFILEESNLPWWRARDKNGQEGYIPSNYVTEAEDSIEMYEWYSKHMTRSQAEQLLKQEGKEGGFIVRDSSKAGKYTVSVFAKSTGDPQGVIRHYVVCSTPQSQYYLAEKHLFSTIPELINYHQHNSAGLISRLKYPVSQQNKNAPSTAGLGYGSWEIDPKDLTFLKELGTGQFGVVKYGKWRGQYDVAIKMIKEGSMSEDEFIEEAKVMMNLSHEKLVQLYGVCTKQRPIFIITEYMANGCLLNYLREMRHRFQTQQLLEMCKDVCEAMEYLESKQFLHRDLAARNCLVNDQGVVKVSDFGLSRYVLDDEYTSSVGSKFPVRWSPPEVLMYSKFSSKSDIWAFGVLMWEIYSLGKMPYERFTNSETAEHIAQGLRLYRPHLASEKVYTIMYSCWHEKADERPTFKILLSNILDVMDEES
Mitogen-activated protein kinase kinase kinase 1, sequence (Q13233 whole entry): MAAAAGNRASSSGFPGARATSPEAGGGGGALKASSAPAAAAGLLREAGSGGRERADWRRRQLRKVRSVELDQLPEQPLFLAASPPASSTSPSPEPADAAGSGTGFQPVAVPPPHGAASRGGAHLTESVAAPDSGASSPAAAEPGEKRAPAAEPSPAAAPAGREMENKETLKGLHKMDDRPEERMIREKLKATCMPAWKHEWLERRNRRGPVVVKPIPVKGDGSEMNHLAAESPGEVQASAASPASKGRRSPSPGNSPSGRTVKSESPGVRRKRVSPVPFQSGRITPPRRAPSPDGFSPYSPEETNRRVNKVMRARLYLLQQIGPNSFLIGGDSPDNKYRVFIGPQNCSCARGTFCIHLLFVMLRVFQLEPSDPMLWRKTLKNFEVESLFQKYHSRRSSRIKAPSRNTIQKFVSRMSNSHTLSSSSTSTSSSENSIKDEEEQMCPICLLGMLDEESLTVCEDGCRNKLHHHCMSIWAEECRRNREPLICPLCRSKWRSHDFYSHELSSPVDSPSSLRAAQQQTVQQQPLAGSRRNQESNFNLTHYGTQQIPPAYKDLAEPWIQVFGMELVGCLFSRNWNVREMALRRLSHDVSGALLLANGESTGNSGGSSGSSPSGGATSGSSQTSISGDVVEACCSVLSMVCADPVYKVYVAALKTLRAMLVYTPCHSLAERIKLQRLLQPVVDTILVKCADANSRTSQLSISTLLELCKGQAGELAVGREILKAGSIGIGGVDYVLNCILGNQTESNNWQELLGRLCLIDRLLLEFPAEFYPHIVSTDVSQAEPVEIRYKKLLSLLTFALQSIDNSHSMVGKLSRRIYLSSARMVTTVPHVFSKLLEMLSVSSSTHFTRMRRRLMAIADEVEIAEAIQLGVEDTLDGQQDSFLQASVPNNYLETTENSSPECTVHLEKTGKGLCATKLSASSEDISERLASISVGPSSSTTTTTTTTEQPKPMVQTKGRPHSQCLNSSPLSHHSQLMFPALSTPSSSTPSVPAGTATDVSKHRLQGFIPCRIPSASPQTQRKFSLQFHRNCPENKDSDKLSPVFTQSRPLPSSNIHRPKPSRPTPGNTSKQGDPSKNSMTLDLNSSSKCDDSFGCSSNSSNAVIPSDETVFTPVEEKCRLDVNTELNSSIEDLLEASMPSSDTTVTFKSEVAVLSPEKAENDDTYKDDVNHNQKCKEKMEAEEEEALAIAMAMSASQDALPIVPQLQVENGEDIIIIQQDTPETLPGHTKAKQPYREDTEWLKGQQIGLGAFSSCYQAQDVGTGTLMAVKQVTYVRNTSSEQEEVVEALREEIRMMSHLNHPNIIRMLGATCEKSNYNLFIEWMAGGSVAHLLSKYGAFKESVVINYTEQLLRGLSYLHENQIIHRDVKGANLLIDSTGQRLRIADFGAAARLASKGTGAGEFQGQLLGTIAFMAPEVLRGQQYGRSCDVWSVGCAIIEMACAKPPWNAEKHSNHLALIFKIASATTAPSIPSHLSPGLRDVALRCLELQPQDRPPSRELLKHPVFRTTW

C[C@@H]1CCN(C(=O)CC#N)C[C@@H]1n1ccc2cnc3[nH]cc(C#N)c3c21
clearance [1]: 1.21 L/h/kg | Vd [2]: 0.97 L/kg | half-life [3]: 7.86 h | AUC(0-t) at 24 h [4]: 1.11 µg·h/mL | Cmax [5]: 0.178 µg/mL | half-life [6]: 3.99 h | AUC(0-t) at 24 h [7]: 0.916 µg·h/mL | bioavailability [8]: 82.4% | Tmax [9]: 0.33 h | IC50 [10]: > 1 µM | IC50 [11]: > 1 µM | IC50 [12]: > 1 µM | IC50 [13]: > 1 µM | IC50 (Ephrin type-A receptor 2): > 1 µM | IC50 (Focal adhesion kinase 1): > 1 µM | IC50 [14]: > 1 µM | IC50 [15]: > 1 µM | IC50 [16]: > 1 µM | IC50 (Angiopoietin-1 receptor): > 1 µM | IC50 [17]: > 1 µM | IC50 [18]: > 1 µM | IC50 [19]: > 1 µM | IC50 [20]: > 1 µM | IC50 [21]: > 1 µM | IC50 [22]: > 1 µM | IC50 [23]: > 1 µM | IC50 [24]: > 1 µM | TDI (Cytochrome P450 3A4): 93% | permeability [25]: 14 10^-6 cm/s
